Assays:
Type in all cases: cell-based
Details in all cases: after 10, 20, 40 and 60 minutes at all dilutions 1:100, 1:200, 1:400, 1:800
Escherichia Coli = experiment: Antimicrobial testing by agar dilution, E. Coli
Protocol: (§1) The antimicrobial properties of the 4-[4,4-bis(4-chlorophenyl)-2,5-dioxoimidazolidin-1-yl]butanoic acid were studied by the method of agar dilution. Test solutions of each compound was prepared in concentration of 1% using dimethylformamide as a solvent then they are diluted in physiological solution to obtain the final experimental dilutions 1:100, 1:200, 1:400, 1:800. The effect of these substances are compared with furacillin in a controllable study. The testing microbes used were gram positive bacteria Staphylococcus aereus, gram negative bacteria Escherichia Coli, Pseudomonas aeruginosa and Candida albicans fungi were taken. The experiments used for this survey were meat-pentonlu agar (EPA) for cultivation of bacteria and Saburo environment for fungi. Each experiment used iml of test solution on each plate 500 min. Add 2 drops of emulsified with microbes feel. All experimental samples were taken from the agar after 10, 20, 40, 60 minutes in the environment on the basis of Patrk planted. Bacteria were cultivated at a temperature of 37° C. for 1 day and the mushroom was kept in a thermostat for […] at a temperature of 28° C. in the. Then results were checked.

Pseudomonas aeruginosa = experiment: Antimicrobial testing by agar dilution, Ps. aeruginosa
Protocol: as §1

Staphylococcus aereus = experiment: Antimicrobial testing by agar dilution, St. Aereus
Protocol: as §1

Candida albicans = experiment: Antimicrobial testing by agar dilution, Candida albicans
Protocol: as §1

Measured: inhibition activity (summary in words)

O=C(O)CCCN1C(=O)NC(c2ccc(Cl)cc2)(c2ccc(Cl)cc2)C1=O [4-[4,4-bis(4-chlorophenyl)-2,5-dioxoimidazolidin-1-yl]butanoic acid]
higher inhibition activity: all assays above
